Test results published in ChEMBL document CHEMBL5291721, “A preclinical secondary pharmacology resource illuminates target-adverse drug reaction associations of marketed drugs” (Nat Commun, 2023).

What was measured:
[1] = target: Acetylcholinesterase (Homo sapiens, UniProt P22303); assay type: functional
[2] = target: T1, Amine oxidase [flavin-containing] A (Homo sapiens, UniProt P21397); assay type: functional
T1 sequence (P21397 whole entry): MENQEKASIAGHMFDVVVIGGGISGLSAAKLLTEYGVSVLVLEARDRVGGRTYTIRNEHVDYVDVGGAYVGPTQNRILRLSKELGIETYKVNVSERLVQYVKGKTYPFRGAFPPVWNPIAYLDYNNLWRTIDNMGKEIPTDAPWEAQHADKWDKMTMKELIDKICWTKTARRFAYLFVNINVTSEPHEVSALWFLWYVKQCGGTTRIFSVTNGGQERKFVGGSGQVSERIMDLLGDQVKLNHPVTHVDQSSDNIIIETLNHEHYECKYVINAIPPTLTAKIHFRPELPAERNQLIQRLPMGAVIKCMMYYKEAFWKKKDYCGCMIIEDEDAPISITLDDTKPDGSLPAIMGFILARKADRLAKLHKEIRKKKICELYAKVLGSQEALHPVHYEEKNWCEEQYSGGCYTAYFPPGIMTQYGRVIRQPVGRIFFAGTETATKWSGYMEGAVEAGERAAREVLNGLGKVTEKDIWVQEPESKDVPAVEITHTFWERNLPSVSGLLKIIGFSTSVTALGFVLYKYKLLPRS

[3] = target: T2, Thromboxane A2 receptor (Homo sapiens, UniProt P21731); assay type: functional, cell-based
T2 sequence (P21731 whole entry): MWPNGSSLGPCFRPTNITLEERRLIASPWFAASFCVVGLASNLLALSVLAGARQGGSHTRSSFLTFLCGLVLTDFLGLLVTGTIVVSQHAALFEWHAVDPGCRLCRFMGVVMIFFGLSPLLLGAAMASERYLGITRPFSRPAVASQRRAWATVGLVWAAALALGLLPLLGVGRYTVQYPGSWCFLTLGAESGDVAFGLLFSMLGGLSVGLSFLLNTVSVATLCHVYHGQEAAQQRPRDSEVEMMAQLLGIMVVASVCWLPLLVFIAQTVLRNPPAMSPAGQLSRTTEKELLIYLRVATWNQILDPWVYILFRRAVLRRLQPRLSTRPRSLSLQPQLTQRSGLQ

[4] = target: Sodium-dependent noradrenaline transporter (Homo sapiens, UniProt P23975)
[5] = target: Histamine H3 receptor (Homo sapiens, UniProt Q9Y5N1)
[6] = target: 3',5'-cyclic-AMP phosphodiesterase 4A (Homo sapiens, UniProt P27815); assay type: functional
[7] = target: 5-hydroxytryptamine receptor 2B (Homo sapiens, UniProt P41595); assay type: functional, cell-based
[8] = target: Bile salt export pump (Homo sapiens, UniProt O95342); assay type: functional
[9] = target: T3, Prostaglandin G/H synthase 1 (Homo sapiens, UniProt P23219); assay type: functional
[10] = target: Voltage-gated inwardly rectifying potassium channel KCNH2 (Homo sapiens, UniProt Q12809); assay type: functional
[11] = target: T4, Muscarinic acetylcholine receptor M2 (Homo sapiens, UniProt P08172)
T4 sequence (P08172 whole entry): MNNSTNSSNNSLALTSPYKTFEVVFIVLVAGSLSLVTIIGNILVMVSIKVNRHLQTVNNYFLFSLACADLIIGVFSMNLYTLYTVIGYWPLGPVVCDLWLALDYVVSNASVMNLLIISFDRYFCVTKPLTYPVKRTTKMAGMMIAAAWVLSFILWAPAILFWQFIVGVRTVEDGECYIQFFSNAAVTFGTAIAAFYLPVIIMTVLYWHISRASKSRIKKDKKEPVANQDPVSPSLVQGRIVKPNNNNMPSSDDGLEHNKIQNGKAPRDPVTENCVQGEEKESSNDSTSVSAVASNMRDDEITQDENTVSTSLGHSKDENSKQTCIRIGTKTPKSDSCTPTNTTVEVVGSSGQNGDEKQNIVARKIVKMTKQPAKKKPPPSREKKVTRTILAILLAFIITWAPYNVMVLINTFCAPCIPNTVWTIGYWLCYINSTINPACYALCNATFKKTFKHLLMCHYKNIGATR

[12] = target: T5, 5-hydroxytryptamine receptor 1A (Homo sapiens, UniProt P08908)
T5 sequence (P08908 whole entry): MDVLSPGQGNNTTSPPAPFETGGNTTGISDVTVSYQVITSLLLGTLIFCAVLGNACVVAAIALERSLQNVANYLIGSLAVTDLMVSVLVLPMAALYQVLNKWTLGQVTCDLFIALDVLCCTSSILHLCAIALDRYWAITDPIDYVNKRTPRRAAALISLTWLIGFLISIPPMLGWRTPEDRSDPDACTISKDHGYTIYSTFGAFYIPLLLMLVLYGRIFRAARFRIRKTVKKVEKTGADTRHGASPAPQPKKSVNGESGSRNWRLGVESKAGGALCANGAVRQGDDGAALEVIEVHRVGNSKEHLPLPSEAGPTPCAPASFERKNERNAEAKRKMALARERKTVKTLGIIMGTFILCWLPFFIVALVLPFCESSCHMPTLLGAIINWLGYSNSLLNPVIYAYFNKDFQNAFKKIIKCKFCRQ

[13] = target: Mu-type opioid receptor (Homo sapiens, UniProt P35372)
[14] = target: T3, Prostaglandin G/H synthase 1; assay type: functional; remark: listed apart in the source
[15] = target: T2, Thromboxane A2 receptor; assay type: functional, cell-based; remark: listed apart in the source
[16] = target: D(1A) dopamine receptor (Homo sapiens, UniProt P21728)
[17] = target: D(3) dopamine receptor (Homo sapiens, UniProt P35462)
[18] = target: cGMP-inhibited 3',5'-cyclic phosphodiesterase 3A (Homo sapiens, UniProt Q14432); assay type: functional
Note: assay procedure not described here.

T3 sequence (P23219 whole entry): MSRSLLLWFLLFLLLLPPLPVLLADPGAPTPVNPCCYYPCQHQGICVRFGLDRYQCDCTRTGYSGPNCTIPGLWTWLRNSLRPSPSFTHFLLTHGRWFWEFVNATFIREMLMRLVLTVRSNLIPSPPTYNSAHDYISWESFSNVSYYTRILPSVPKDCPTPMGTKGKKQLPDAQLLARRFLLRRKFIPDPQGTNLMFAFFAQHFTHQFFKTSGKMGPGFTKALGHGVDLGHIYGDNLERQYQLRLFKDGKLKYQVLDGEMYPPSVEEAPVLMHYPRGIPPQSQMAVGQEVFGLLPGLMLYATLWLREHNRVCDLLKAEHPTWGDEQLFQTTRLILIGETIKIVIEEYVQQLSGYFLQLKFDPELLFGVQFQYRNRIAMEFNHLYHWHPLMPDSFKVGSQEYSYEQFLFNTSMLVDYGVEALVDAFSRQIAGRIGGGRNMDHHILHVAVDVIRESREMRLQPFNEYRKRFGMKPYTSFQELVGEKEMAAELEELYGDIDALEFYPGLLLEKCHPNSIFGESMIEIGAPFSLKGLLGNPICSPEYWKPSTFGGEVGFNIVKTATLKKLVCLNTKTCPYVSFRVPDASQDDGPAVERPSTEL
Sequence of 3',5'-cyclic-AMP phosphodiesterase 4A (P27815 whole entry): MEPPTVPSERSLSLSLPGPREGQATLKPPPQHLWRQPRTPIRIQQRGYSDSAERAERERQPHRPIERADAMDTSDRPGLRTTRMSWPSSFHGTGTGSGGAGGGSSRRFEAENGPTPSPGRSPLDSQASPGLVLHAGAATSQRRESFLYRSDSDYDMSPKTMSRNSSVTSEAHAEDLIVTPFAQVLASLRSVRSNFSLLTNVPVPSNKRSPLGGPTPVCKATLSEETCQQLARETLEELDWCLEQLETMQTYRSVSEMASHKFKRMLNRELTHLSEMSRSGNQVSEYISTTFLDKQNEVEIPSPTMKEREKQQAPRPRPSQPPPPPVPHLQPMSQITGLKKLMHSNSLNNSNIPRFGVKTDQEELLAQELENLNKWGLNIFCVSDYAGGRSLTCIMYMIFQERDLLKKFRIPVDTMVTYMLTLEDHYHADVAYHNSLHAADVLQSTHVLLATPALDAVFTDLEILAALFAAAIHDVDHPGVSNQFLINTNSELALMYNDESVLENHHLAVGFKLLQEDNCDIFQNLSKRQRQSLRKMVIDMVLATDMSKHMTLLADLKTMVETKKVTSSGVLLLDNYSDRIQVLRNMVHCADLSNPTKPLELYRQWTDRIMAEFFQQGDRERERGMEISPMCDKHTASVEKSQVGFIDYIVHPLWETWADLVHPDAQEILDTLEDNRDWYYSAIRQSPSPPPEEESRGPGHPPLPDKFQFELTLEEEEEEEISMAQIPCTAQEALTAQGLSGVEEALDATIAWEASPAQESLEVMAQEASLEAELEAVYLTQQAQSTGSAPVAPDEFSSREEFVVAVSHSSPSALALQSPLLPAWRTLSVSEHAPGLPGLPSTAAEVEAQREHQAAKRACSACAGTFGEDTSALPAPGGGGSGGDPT
Sequence of 5-hydroxytryptamine receptor 2B (P41595 whole entry): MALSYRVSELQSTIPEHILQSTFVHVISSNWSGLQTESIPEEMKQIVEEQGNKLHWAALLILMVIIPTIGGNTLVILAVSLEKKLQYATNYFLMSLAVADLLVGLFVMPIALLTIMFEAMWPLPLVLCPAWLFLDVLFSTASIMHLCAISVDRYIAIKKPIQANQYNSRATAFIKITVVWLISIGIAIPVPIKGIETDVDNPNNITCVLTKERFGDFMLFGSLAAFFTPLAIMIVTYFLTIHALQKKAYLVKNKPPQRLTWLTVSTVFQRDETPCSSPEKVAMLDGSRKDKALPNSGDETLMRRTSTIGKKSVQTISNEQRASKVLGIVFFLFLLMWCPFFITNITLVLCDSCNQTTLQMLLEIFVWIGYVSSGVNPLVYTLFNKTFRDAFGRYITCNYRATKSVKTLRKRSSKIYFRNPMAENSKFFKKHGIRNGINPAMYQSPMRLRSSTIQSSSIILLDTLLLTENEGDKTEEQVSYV
Sequence of Acetylcholinesterase (P22303 whole entry): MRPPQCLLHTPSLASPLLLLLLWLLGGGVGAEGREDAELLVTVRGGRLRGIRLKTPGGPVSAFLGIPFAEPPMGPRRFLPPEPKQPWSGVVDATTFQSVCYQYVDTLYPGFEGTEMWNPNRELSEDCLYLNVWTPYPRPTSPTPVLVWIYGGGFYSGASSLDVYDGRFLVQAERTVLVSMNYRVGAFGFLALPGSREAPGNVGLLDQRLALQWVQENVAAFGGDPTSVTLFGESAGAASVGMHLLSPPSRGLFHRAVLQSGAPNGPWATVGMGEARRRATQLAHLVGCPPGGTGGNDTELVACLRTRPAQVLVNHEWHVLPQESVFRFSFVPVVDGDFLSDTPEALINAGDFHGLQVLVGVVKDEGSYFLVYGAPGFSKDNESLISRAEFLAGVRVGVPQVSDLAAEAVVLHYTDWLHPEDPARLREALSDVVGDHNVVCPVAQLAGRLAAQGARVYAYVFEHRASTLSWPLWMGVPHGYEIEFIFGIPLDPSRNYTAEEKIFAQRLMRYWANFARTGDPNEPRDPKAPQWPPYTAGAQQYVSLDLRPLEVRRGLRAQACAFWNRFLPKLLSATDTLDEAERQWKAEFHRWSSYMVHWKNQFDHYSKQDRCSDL
Sequence of cGMP-inhibited 3',5'-cyclic phosphodiesterase 3A (Q14432 whole entry): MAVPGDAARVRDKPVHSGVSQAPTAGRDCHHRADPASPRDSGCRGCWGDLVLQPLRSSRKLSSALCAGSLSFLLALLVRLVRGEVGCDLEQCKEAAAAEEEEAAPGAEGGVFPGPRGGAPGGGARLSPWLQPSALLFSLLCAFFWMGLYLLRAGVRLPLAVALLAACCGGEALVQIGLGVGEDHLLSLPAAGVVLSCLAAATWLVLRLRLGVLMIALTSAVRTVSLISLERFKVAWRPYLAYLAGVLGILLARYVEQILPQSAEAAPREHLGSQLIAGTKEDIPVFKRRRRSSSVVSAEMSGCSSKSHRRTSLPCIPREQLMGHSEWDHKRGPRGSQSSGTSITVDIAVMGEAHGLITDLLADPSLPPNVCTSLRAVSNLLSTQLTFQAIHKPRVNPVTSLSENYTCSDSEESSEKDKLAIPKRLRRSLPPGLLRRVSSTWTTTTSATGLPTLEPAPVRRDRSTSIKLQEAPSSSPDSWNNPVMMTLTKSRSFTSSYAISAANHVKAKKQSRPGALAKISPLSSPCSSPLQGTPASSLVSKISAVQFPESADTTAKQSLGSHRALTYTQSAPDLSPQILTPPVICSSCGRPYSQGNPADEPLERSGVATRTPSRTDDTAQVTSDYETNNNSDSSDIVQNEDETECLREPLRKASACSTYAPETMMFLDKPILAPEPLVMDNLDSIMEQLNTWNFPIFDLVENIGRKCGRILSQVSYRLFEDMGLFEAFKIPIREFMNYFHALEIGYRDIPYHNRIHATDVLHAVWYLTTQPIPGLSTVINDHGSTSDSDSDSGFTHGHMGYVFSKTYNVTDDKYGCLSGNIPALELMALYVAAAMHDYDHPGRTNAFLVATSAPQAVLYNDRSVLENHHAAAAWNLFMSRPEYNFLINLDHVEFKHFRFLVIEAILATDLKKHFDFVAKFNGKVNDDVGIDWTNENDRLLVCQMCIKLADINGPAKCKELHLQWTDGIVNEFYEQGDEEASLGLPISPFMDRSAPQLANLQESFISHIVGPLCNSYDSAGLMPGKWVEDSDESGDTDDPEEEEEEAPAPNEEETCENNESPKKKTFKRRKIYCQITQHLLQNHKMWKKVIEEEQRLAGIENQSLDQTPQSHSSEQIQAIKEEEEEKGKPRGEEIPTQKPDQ
Sequence of Histamine H3 receptor (Q9Y5N1 whole entry): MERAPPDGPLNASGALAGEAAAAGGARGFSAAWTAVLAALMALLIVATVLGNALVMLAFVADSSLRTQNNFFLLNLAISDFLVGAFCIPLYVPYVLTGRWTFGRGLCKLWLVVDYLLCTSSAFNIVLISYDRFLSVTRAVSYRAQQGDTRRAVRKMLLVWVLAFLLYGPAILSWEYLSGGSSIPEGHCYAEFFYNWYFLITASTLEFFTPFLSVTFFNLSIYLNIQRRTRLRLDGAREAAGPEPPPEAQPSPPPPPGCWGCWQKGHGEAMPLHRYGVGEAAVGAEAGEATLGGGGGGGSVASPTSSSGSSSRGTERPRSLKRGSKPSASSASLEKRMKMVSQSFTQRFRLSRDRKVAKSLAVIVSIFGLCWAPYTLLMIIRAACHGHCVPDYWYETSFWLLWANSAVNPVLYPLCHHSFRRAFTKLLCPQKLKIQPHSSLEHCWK
Sequence of D(1A) dopamine receptor (P21728 whole entry): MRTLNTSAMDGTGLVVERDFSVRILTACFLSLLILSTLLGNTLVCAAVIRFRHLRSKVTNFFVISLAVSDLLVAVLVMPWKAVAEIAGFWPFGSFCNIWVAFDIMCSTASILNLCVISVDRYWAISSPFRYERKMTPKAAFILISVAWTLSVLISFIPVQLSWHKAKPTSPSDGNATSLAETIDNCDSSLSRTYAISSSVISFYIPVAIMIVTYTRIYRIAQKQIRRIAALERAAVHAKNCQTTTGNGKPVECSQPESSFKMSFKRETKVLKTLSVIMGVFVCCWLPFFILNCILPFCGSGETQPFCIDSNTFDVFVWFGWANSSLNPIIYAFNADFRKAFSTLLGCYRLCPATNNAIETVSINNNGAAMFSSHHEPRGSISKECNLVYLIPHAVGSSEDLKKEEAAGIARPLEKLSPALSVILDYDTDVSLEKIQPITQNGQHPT
Sequence of Mu-type opioid receptor (P35372 whole entry): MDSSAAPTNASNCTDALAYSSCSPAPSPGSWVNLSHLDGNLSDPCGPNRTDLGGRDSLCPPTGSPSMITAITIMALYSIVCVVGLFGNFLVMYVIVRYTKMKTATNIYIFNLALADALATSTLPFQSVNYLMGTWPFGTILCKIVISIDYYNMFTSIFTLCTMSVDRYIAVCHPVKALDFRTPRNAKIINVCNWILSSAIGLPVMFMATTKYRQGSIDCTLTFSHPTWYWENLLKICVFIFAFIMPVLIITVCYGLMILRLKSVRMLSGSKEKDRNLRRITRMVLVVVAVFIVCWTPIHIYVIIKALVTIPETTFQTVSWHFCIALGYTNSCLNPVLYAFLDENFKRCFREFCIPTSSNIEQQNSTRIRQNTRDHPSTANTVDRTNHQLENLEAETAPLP

| Compound | AC50 [1] | AC50 [2] | AC50 [3] | AC50 [4] | AC50 [5] | AC50 [6] | AC50 [7] | AC50 [8] | AC50 [9] | AC50 [10] | AC50 [11] | AC50 [12] | AC50 [13] | AC50 [14] | AC50 [15] | AC50 [16] | AC50 [17] | AC50 [18] |
| --- | --- | --- | --- | --- | --- | --- | --- | --- | --- | --- | --- | --- | --- | --- | --- | --- | --- | --- |
| O=C(O)c1cc(/N=N/c2ccc(O)c(C(=O)O)c2)ccc1O [OLSALAZINE] | > 30 µM | > 30 µM | > 30 µM | > 30 µM | > 30 µM | 13.2 µM | > 30 µM | > 300 µM | > 30 µM | > 30 µM | > 30 µM | > 30 µM | > 30 µM | > 30 µM | > 30 µM | > 30 µM | > 30 µM | > 30 µM |
| CC(C)C[C@H](NC(=O)CNC(=O)c1cc(Cl)ccc1Cl)B(O)O [IXAZOMIB] | > 30 µM | > 30 µM | > 30 µM | > 30 µM | > 30 µM | 29.9 µM | > 30 µM | > 300 µM | > 30 µM | > 30 µM | > 30 µM | > 30 µM | > 30 µM | > 30 µM | > 30 µM | > 30 µM | > 30 µM | > 30 µM |
| CCOC(=O)C1=C[C@@H](OC(CC)CC)[C@H](NC(C)=O)[C@@H](N)C1 [OSELTAMIVIR] | > 30 µM | > 30 µM | > 30 µM | > 30 µM | > 30 µM | > 30 µM | > 30 µM | > 300 µM | > 30 µM | > 30 µM | > 30 µM | > 30 µM | > 30 µM | > 30 µM | > 30 µM | > 30 µM | > 30 µM | > 30 µM |
| COc1cc2nc(N3CCN(C(=O)C4CCCO4)CC3)nc(N)c2cc1OC (stereo not given) [TERAZOSIN] | 22.9 µM | > 30 µM | > 30 µM | > 30 µM | > 30 µM | > 30 µM | > 30 µM | > 300 µM | > 30 µM |  | > 30 µM | > 30 µM | > 30 µM | > 30 µM | > 30 µM | 27.8 µM | > 30 µM | > 30 µM |
| CCCN(CCC)C(=O)Cc1c(-c2ccc(Cl)cc2)nc2ccc(Cl)cn12 [ALPIDEM] | > 30 µM | > 30 µM | > 30 µM | > 30 µM | > 30 µM | > 30 µM | > 30 µM | 4.8 µM | > 30 µM | 14.8 µM | > 30 µM | > 30 µM | 15.5 µM | > 30 µM | > 10 µM | > 30 µM | 27.8 µM | > 30 µM |
| CC(C)Cc1ccc(C(C)C(=O)O)cc1 (stereo not given) [IBUPROFEN] | > 30 µM | > 30 µM | > 30 µM | > 30 µM | > 30 µM | > 30 µM | > 30 µM | > 300 µM |  |  | > 30 µM | > 30 µM | > 30 µM |  | > 30 µM | > 30 µM | > 30 µM | > 30 µM |
| Cc1onc(-c2ccccc2)c1-c1ccc(S(N)(=O)=O)cc1 [VALDECOXIB] | > 30 µM | > 30 µM | > 30 µM | 2.31 µM | > 30 µM | 18.7 µM | > 30 µM | 240 µM |  | > 30 µM | > 30 µM | > 30 µM | > 30 µM |  | > 30 µM | > 30 µM | > 30 µM | > 30 µM |
| COc1ccccc1Oc1c(NS(=O)(=O)c2ccc(C(C)(C)C)cc2)nc(-c2ncccn2)nc1OCCO [BOSENTAN] |  |  |  |  |  |  |  | 18 µM |  | > 30 µM |  |  |  |  |  |  |  |  |
| Nc1ccc(S(=O)(=O)Nc2nccs2)cc1 [SULFATHIAZOLE] |  |  |  |  |  |  |  | > 300 µM |  | > 30 µM |  |  |  |  |  |  |  |  |
| O=C1CCc2cc(OCCCCc3nnnn3C3CCCCC3)ccc2N1 [CILOSTAZOL] |  |  |  |  |  |  |  | 62 µM |  | > 30 µM |  |  |  |  |  |  |  |  |
| COc1ccc(CC2c3cc(OC)c(OC)cc3CC[N+]2(C)CCC(=O)OCCCCCOC(=O)CC[N+]2(C)CCc3cc(OC)c(OC)cc3C2Cc2ccc(OC)c(OC)c2)cc1OC (stereo not given) |  |  |  |  |  |  |  | 170 µM |  | 0.16 µM |  |  |  |  |  |  |  |  |
| CC(S)C(=O)NCC(=O)O (stereo not given) [TIOPRONIN] |  |  |  |  |  |  |  | > 300 µM |  | > 30 µM |  |  |  |  |  |  |  |  |
| CCCC(CCC)C(=O)O [VALPROIC ACID] | > 30 µM | > 30 µM | > 30 µM | > 30 µM | > 30 µM | > 30 µM | > 30 µM | > 300 µM | > 30 µM |  | > 30 µM | > 30 µM | > 30 µM | > 30 µM | > 30 µM | > 30 µM | > 30 µM | > 30 µM |
| CN1C(C(=O)Nc2ccccn2)=C(O)c2ccccc2S1(=O)=O [PIROXICAM] | > 30 µM | > 30 µM | > 30 µM | > 30 µM | > 30 µM | > 30 µM | > 30 µM | 200 µM |  | > 30 µM | > 30 µM | > 30 µM | > 30 µM |  | > 30 µM | > 30 µM | > 30 µM | > 30 µM |
| C[C@]12C=CC(=O)N[C@@H]1CC[C@@H]1[C@@H]2CC[C@]2(C)[C@@H](C(=O)Nc3cc(C(F)(F)F)ccc3C(F)(F)F)CC[C@@H]12 [DUTASTERIDE] |  |  |  |  |  |  |  | 14 µM |  | > 30 µM |  |  |  |  |  |  |  |  |
| CCN1CCN(Cc2ccc(Nc3ncc(F)c(-c4cc(F)c5nc(C)n(C(C)C)c5c4)n3)nc2)CC1 [ABEMACICLIB] |  |  |  |  |  |  |  | 33 µM |  | 6 µM |  |  |  |  |  |  |  |  |
| CC(C)(C)NCC(O)c1cc(O)cc(O)c1 (stereo not given) [TERBUTALINE] |  |  |  |  |  |  |  | > 300 µM |  | > 30 µM |  |  |  |  |  |  |  |  |
| CO[C@H]1/C=C/O[C@@]2(C)Oc3c(C)c(O)c4c(O)c(c(/C=N/N5CCN(C)CC5)c(O)c4c3C2=O)NC(=O)/C(C)=C\C=C\[C@H](C)[C@H](O)[C@@H](C)[C@@H](O)[C@@H](C)[C@H](OC(C)=O)[C@@H]1C [RIFAMPIN] |  |  |  |  |  |  |  | 9.6 µM |  | > 30 µM |  |  |  |  |  |  |  |  |
| CC(N)C12CC3CC(CC(C3)C1)C2 (stereo not given) [RIMANTADINE] |  |  |  |  |  |  |  | > 300 µM |  | > 30 µM |  |  |  |  |  |  |  |  |
| CN(C)CCc1c[nH]c2ccc(Cn3cncn3)cc12 [RIZATRIPTAN] |  |  |  |  |  |  |  | > 300 µM |  | > 30 µM |  |  |  |  |  |  |  |  |
